Laboratory results taken from patent US7094801B2, “Chalcone derivatives and their use to treat diseases” (Atherogenics, Inc., priority 2001, dated 2006).
Marks after values point to notes of the source that are not given here. Blank lines part the entries; values can stand above or below the compound they belong to.

Experiments:
Balb/C mice = assay: Asthma Protocol (ovalbumin sensitized and challenged mice, bronchoaveolar lavage); assay type: in vivo, mouse; details: sc, daily dosing at 100 mg/kg from day 0–13, lavage fluid
Protocol: Balb/C mice (6–8 weeks old) are sensitized to ovalbumin (ova) (8 ug ova absorbed in 3.3 mg Alum inject) on days 0 and 5. On day 12, the mice were aerosol challenged with 0.5% ovalbumin dissolved in sterile saline for 1 hr in the AM, and then again in the PM (at least 4 hr apart). On day 14, the mice were anesthetized with ketamine/xylazine/acepromazine cocktail, exsanguinated, and then euthanized. Following blood collection, bronchoaveolar lavage was performed on each animal. Total cell counts were conducted on the lavage fluid, which was subsequently diluted with cell media 1:1. Slides of the lavage fluid were made by spinning the samples with a cytospin centrifuge. Slides were airdried and stained with x. Cell differentials of the lavage fluid were completed at the conclusion of the study. All compounds except Example 2 were well tolerated with no body weight loss throughout the course of the study. Statistical analysis involved ANOVA and Tukey-Kramer post hoc tests. Compounds were administered except where noted by subcutaneous injection once daily from day 0–13. The formulations used contained various mixtures of the following excipients (pharmasolve, cremophor RH 40, tween 80, PEG 300). See Biological Table 3

Male Lewis rats = assay: Rheumatoid Arthritis Protocol (rat adjuvant arthritis, paw swelling); assay type: in vivo; details: sq, bid
Protocol: (§1) Male Lewis rats (150–175 g) from Charles River Laboratories were anesthetized on day 0 with 3–5% isoflurane anesthesia while the tail base was shaved and adjuvant mixture was injected. Fifty μL of adjuvant (10 mg/ml M. butyricum in mineral oil) was injected subcutaneously into two sites at the tail base. Paw swelling was monitored using a plethysmometer (UGO Basile), after shaving each leg to the level of the Achilles tendon to mark the level of immersion. A baseline paw measurement for both hindpaws was taken between d2-d5 and a second measurement was taken on day 7–8. Onset of paw swelling occurred rapidly between d9–11 and daily measurements were performed every weekday between d9 and day 15. Compounds of the invention and vehicles were dosed either prophylactically (d1–14), or therapeutically (d9–14) after swelling was confirmed. Solutions were injected subcutaneously or given orally by gavage 1–2 times per day. From day 0, rats were weighed every 2–3 days and overall health was monitored. Plasma drug levels, if desired, were measured in tail-vein derived blood samples taken on day 14. On day 15, blood samples were obtained by cardiac puncture, rats were euthanized with CO2, selected organs removed and both hindpaws were amputated and placed in 10% buffered formalin for histopathological analysis. See Biological Table 2.

VCAM-1 = assay: In Vitro VCAM-1 Assay (TNF-α stimulated HAEC or HPAEC, cell ELISA); assay type: cell-based, human; details: Homo sapiens, 16 h, TNF-α (1 ng/ml) stimulated HAEC or HPAEC, approximately 16 hours
Summary of the method: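 Primary human aortic or pulmonary endothelial cells (below passage 9) stimulated with TNF-α (1 ng/ml) plus compound (four concentrations, ≤0.25% DMSO) for about 16 h. Surface VCAM-1 detected by cell ELISA (HRP/TMB, OD 450 nm). IC50 taken as the concentration giving 50% inhibition of the TNF-α-only response.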

[1] = tested on: Human Aortic Smooth Mucle Cells (HAoSMC); assay: Smooth Muscle Cell Proliferation Protocol (3H-thymidine incorporation); assay type: cell-based; details: HAoSMC stimulated by 5% serum
Protocol: Human Aortic Smooth Mucle Cells (HAoSMC) were obtained from Clonetics, Inc. and were used below passage 10. Cells were seeded in 24-well plates. When cells were 80% confluent, they were made quiescent by adding media containing 0.2% serum (as compared to 5% serum in normal culture media) for 48 hours. The cells were, then, stimulated by 5% serum in the presence or absence of compounds dissolved in DMSO. […] Rapamycin (at 1 and 0.1 μM) was used as a positive control for the assay. After a 20 hour incubation with or without test compounds, 3H-thymidine (0.5 μCi/well) was added to the cells for 4 hours of labeling. Washed cells were then lysed in NaOH and the amount of 3H-thymidine incorporation was determined. Cytotoxicity of the drug was measured by use of the CytolTox 96 assay kit (Promega, Madison, Wis.).

IFN-gamma mRNA = IFN-gamma mRNA in mouse lungs, ovalbumin sensitization and challenge (real-time PCR); assay type: in vivo; details: 100 mg/kg/d, compared with vehicle treated mice
Protocol: (§2) Lung tissues were collected from ovalbumin (Calbiochem) or vehicle (2% Cremophor/Bicarbonate) sensitized Balb/c mice (Charles River) with or without treatment of test compound (100 mg/kg/d, from day 0 to day 14). Total RNA samples were isolated by the Trizol method (Life Technologies, Grand Island, N.Y.) and quantitatively measured by UV spectrophotometer, as well as qualitatively examined by ethidum bromide stained gel electrophoresis. First strand cDNA templates were generated with oligo (dT) by Reverse Transcription Kit (Invitrogen, Carlsbad, Calif.). The initial amounts of mRNA of each samples were quantitatively determined by running a SYBR Green (Qiagen, Valencia, Calif.) based real-time PCR (programmed as: initial denaturation at 95° C. for 15 minutes, denaturation at 95° C. for 15 seconds, annealing and elongation at 51±1° C. for 1 minute for total 40 cycles) with a specific pair of primers (IDT Corporation, Coralville, Iowa) and control primers for GAPDH in iCycler IQ Optical System (Hercules, Calif.). The data were statistically analyzed by ANOVA and t-tests with multiple comparisons of means (n=5 and P<0.05 were considered significant).

IL-5 mRNA = IL-5 mRNA in mouse lungs, ovalbumin sensitization and challenge (real-time PCR); assay type: in vivo; details: 100 mg/kg/d, compared with vehicle treated mice
Protocol: as §2

MCP-1 = assay: In Vitro MCP-1 Activity Assay; assay type: cell-based; details: Endothelial cell; human endothelial cells, TNF-α (1 ng/ml), approximately 16 hours; read-out: IC50 (amount of compound required to achieve a 50% reduction compared to control), MCP-1
Protocol: Cultured human endothelial cells were seeded in 96-well plates. On the following day cells were stimulated with TNF-α (1 ng/ml) in the presence or absence of compounds dissolved in DMSO. To establish a dose curve and an IC50, multiple concentrations in 2- to 5-fold increments were used. Cells were exposed to TNF-α and compounds for approximately 16 hours. The next day the cells were visually examined via light microscopy to score for visual signs of toxicity. Cell culture media, diluted 1:10, was analyzed by an MCP-1 immunoassay kit (R & D Systems). This assay is a sandwich immunoassay using immobilized anti-MCP-1 antibody in 96-well plate to capture secreted MCP-1 in cell culture media. Captured MCP-1 was subsequently detected with a horse radish peroxidase-conjugated anti-MCP-1 antibody for color development. Compound 3 expressed an IC50 values of >10(the amount of compound (μM) required to achieve a 50% reduction compared to control (cells stimulated with TNF-α only)).

IL-1β = assay: LPS-stimulated IL-1β secretion in human peripheral blood mononuclear cells; assay type: cell-based; details: PBMC; for Percent IL-1β Secreted: LPS (1–2 μg/ml) 3 hours
Protocol: Human peripheral blood mononuclear cells were treated with or without Compound 3 for 1 hour, then stimulated with LPS (1–2 μg/ml) for 3 hours. Condition media was collected and IL-1β measured using an ELISA kit. […] See Biological Table 4

IgE = assay: Serum IgE levels in ovalbumin sensitized Balb/c mice; assay type: in vivo, mouse; details: 100 mg/kg/d from day 0 to day 14, compared with vehicle treated mice
Protocol: Peripheral blood samples were collected from ovalbumin (Calbiochem) or vehicle (2% Cremophor/Bicarbonate) treated Balb/c mice (Charles River) with or without administration of test compound (100 mg/kg/d, from day 0 to day 14). Serum was obtained by centrifugation and transferred into Microtainer serum tubes and frozen at −80° C. Mouse IgE ELISA Quantitation Kit (Bethyl Laboratories, Inc. Montgomery, Tex. or PharMingen, San Diego, Calif.) was applied to measure the IgE levels of serum samples. Immuno-reactions were performed as Kit protocol with IgE standard and serum samples in duplicates. The results were read in a microplate reader (Bio-Rad Model 550) at 450 nm and the amounts of IgE were calculated according to the standard curve. The limit of detection in our experiments was 7 ng/ml. Compound 3 administrated at 100 mg/kg/d from day 0 to day 14, reduced serum IgE levels by 38% in ovalbumin sensitized Balb/c mice compared with vehicle treated mice.

IL-13 mRNA = IL-13 mRNA in mouse lungs, ovalbumin sensitization and challenge (real-time PCR); assay type: in vivo; details: 100 mg/kg/d, compared with vehicle treated mice
Protocol: as §2

VCAM-1 mRNA = assay: Lung VCAM-1 mRNA levels in LPS-challenged mice (quantitative RT-PCR); assay type: in vivo, mouse; details: subcutaneously 100 mg/kg/d, 2 hr prior to LPS injection (1 mg/kg), compared with vehicle controls
Protocol: (§3) Balb/C mice (6–8 weeks) were injected with LPS (1 mg/kg; 5 mls/kg) and sacrificed 2 hr later. Blood was collected for plasma TNF-α levels and lungs for measurement of VCAM-1 mRNA levels by quantitative RT-PCR. Compound 3 administered subcutaneously at a dose of 100 mg/kg/d, 2 hr prior to LPS injection, inhibited TNF-α production by 80% and VCAM-1 expression by 60% compared with vehicle controls.

[2] = tested on: rat adjuvant arthritis model; assay: DMARD activity in rat adjuvant arthritis (bone erosion, splenomegaly); assay type: in vivo
Protocol: as §1, with “2. […]” for “2.”

IL-4 mRNA = IL-4 mRNA in mouse lungs, ovalbumin sensitization and challenge (real-time PCR); assay type: in vivo; details: 100 mg/kg/d, compared with vehicle treated mice
Protocol: as §2

TNF-α = assay: Plasma TNF-α levels in LPS-challenged mice; assay type: in vivo, mouse; details: subcutaneously 100 mg/kg/d, 2 hr prior to LPS injection (1 mg/kg), compared with vehicle controls
Protocol: as §3

IL-2 mRNA = IL-2 mRNA in mouse lungs, ovalbumin sensitization and challenge (real-time PCR); assay type: in vivo; details: 100 mg/kg/d, compared with vehicle treated mice
Protocol: as §2

IC50 (VCAM-1): < 1 µM
SMILES: COCCOCCOc1cc(OC)c(-c2cccs2)cc1/C=C/C(=O)c1ccc(C(=O)O)cc1 [Example 29, 4-(3E-{4-Methoxy-2-[2-(2-methoxyethoxy)ethoxy]-5-thiophen-2-yl-phenyl}-acryloyl)-benzoic Acid]
% Inhibition (Balb/C mice): 24%
% Inhibition (Male Lewis rats; 60 mg/Kg/day, d1–14): 82%

melting point: 213 to 216 °C
IC50 (VCAM-1): < 1 µM
SMILES: COc1cc(OC)c(-c2cccs2)cc1/C=C/C(=O)c1ccc(C(=O)O)cc1 [Example 6, 4-[3E-(2,4-Dimethoxy-5-thiophen-2-yl-phenyl)-acryloyl]-benzoic acid]
% Inhibition (Balb/C mice): 81%
% Inhibition (Male Lewis rats; 60 mg/Kg/day, d1–14): 77%

The remaining lines, values behind:

SMILES: COc1cc(OCCN2CCOCC2)c(/C=C/C(=O)c2ccc(C(=O)O)cc2)cc1-c1cccs1.Cl [Example 60, 4-{3E-[4-Methoxy-2-(2-morpholin-4-yl-ethoxy)-5-thiophen-2-yl-phenyl]-acryloyl}-benzoic acid, hydrochloride]
% Inhibition (Balb/C mice): 36%
% Inhibition (Male Lewis rats; 75 mg/kg/day, dl–14): 62* %
melting point: 255 °C (dec.)
IC50 (VCAM-1): < 1 µM

SMILES: COc1cc(OC)c(-c2cc3ccccc3s2)cc1/C=C/C(=O)c1ccc(C(=O)O)cc1 [Compound 3]
IC50 [1]: 0.5 µM
effect on IFN-gamma mRNA in the lung (IFN-gamma mRNA): without significantly affecting
inhibition of ovalbumin induced IL-5 mRNA in the lung (IL-5 mRNA): 98%
IC50 (MCP-1): > 10 µM
Percent IL-1β Secreted (IL-1β; 1.25 μM): >40%
Percent IL-1β Secreted (IL-1β; 2.5 μM): >10%
Percent IL-1β Secreted (IL-1β; 5 μM): >5%
Percent IL-1β Secreted (IL-1β; 10 μM): >1%
inhibition of LPS-stimulated IL-1β secretion (IL-1β; 1 hour pretreatment, LPS 3 hours): dose dependent inhibition
reduction of serum IgE levels (IgE): 38%
inhibition of ovalbumin induced IL-13 mRNA in the lung (IL-13 mRNA): 82%
inhibition of VCAM-1 expression (lung mRNA) (VCAM-1 mRNA): 60%
splenomegaly ([2]; prophylactically, 100, 50 and 25 mg/kg/d, b.i.d., s.c.): inhibit splenomegaly
bone erosion in the ankle joint by histopathological analysis ([2]; twice daily subcutaneous doses of 60, 40 and 20 mg/kg/d, prophylactically): inhibit bone erosion
inhibition of ovalbumin induced IL-4 mRNA in the lung (IL-4 mRNA): 68%
inhibition of TNF-α production (plasma) (TNF-α): 80%
effect on IL-2 mRNA in the lung (IL-2 mRNA): without significantly affecting

SMILES: COc1cc(OC)c(-c2cc3ccccc3s2)cc1/C=C/C(=O)c1ccc(C(=O)O)cc1 [Example 3, 4-[3E-(5-Benzo[b]thien-2-yl-2,4-dimethoxyphenyl)-acryloyl]-benzoic acid]
% Inhibition (Balb/C mice): 79%
% Inhibition (Male Lewis rats; 60 mg/Kg/day, d1–14): 96%
